Measured values reported in patent US20220016060A1, “USE OF SODIUM 2-(3-PENTYLPHENYL)ACETATE IN THE TREATMENT OF ALSTRÖM SYNDROME” (LIMINAL BIOSCIENCES LIMITED, priority 2018, published 2022).
Where “and” joins values, the source holds several entries; their conditions need not be identical. Equal values may be shown once. Entries after “also recorded” stand apart in the source; their conditions may differ.

Legend:
ALMS patients [1] = test: Non-Alcoholic Fatty Liver Disease (NAFLD) Fibrosis Score; format: in vivo, human; conditions: 800 mg daily oral; for NAFLD Fibrosis Score in Subjects with an FPG > 5.6 mmol/L: individual subjects
Protocol: (§1) The study was a Phase 2, single-centre, single-arm, open-label study of sodium 2-(3-pentylphenyl)acetate administered at a total daily oral dose of 800 mg for up to 72 weeks in subjects with ALMS was undertaken. The initial duration of the study was 24 weeks, and subjects were offered to enrol into an extension phase of […]. The schedule of study procedures for the enrolment, intervention, and assessments for participants is outlined in FIG. 1. Sodium 2-(3-pentylphenyl)acetate was formulated in soft gelatine capsules containing 200 mg of Sodium 2-(3-pentylphenyl)acetate (amorphous powder) per capsule, polyethylene glycol 400, National Formulary (NF), hydrochloric acid (for pH adjustment), and water. The effect of sodium 2-(3-pentylphenyl)acetate on liver histology in ALMS patients was also assessed by measuring the Non-Alcoholic Fatty Liver Disease (NAFLD) Fibrosis Score. Increased NAFLD fibrosis score may be associated with hepatic dysfunction.

ALMS patients [2] = test: Enhanced Liver Fibrosis (ELF) blood test; format: in vivo, human; set-up: increase in ELF test score from baseline / Change from Baseline ELF Test, Median / ELF Test score: scale not given here; conditions: for Change from Baseline ELF Test, Mean (SD) / Change from Baseline ELF Test, Median / ELF Test score / Severity of Liver Fibrosis Based on ELF Test: 800 mg daily oral; for ELF Test score / Severity of Liver Fibrosis Based on ELF Test: individual subjects
Protocol: as §1, with “using” for “by measuring”, “Enhanced” for “Non-Alcoholic Fatty”, “Liver” for “Liver Disease (NAFLD)”, “(ELF™) blood test. The ELF™ Blood Test combines three serum biomarkers (Hyaluronic acid (HA), Procollagen III amino terminal peptide (PIIINP), and Tissue inhibitor of metalloproteinase 1 (TIMP-1)) which, when correlated, are able to identify a quantifiable level of liver fibrosis.” for “Score. Increased NAFLD fibrosis score may be associated with hepatic dysfunction.”

[3] = Subject 826-001-001, 204-day break in treatment

With `CCCCCc1cccc(CC(=O)[O-])c1.[Na+]` [sodium 2-(3-pentylphenyl)acetate] the “Change from Baseline NAFLD Score with an FPG > 5.6 mmol/L, Mean (SD)” value (ALMS patients [1]; Week 12, N=11) was −0.35 (0.582), the “Change from Baseline NAFLD Score with an FPG > 5.6 mmol/L, Median” value (ALMS patients [1]; Week 12, N=11) was −0.34 and the “Change from Baseline NAFLD Score with an FPG > 5.6 mmol/L, Mean (SD)” value (ALMS patients [1]; Week 24, N=9) was 0.16 (0.446). For the same molecule, the “Change from Baseline NAFLD Score with an FPG > 5.6 mmol/L, Median” value (ALMS patients [1]; Week 24, N=9) was 0.21, the “NAFLD Fibrosis Score in Subjects with an FPG > 5.6 mmol/L” value (“NAFLD Fibrosis Score in Subjects” for short) (ALMS patients [1]; EP Week 12 (Week 36)) was −1.9 and −3.1 and −3.8 (4×) and −1.6 and −1.2 and 0.2 and −3.6 and the “NAFLD Fibrosis Score in Subjects” value (ALMS patients [1]; EP Week 24 (Week 48)) was −1.9 and −4.4 and −3.0 and −3.8 and −0.8 and −1.0 and −3.1 and 0.5 and −4.2. The “NAFLD Fibrosis Score in Subjects” value (ALMS patients [1]; EP Week 36 (Week 60)) was −1.5 and −3.7 and −2.9 (2×) and −4.2 and −1.1 and 0.2 and −3.4 and −3.8, the “NAFLD Fibrosis Score in Subjects” value (ALMS patients [1]; Week 12) was −2.5 and −1.8 and −3.9 (2×) and −3.1 and −1.4 and −0.8 (2×) and −3.3 and 0.6 and −4.3 and the “NAFLD Fibrosis Score in Subjects” value (ALMS patients [1]; Week 24) was −1.5 and −1.9 and −2.7 (2×) and −3.8 and −0.2 and −2.9 and −1.0 and −3.7. The “subjects in whom ELF test score decreased from baseline” value (ALMS patients [2]; 6/12 subjects) was 50.0%, the “subjects in whom severity of liver fibrosis based on the ELF test was stable or improved from baseline” value (ALMS patients [2]; 10/12 subjects) was 83.3% and the “Change from Baseline ELF Test, Mean (SD)” value (ALMS patients [2]; EP Week 12 (Week 36), N=10) was −0.24 (1.056). For the same molecule, the “Change from Baseline ELF Test, Median” value (ALMS patients [2]; EP Week 12 (Week 36), N=10) was −0.02, the “Change from Baseline ELF Test, Mean (SD)” value (ALMS patients [2]; EP Week 24 (Week 48), N=9) was −0.22 (1.086) and the “Change from Baseline ELF Test, Median” value (ALMS patients [2]; EP Week 24 (Week 48), N=9) was −0.13. The “Change from Baseline ELF Test, Mean (SD)” value (ALMS patients [2]; EP Week 36 (Week 60), N=8) was −0.26 (1.193), the “Change from Baseline ELF Test, Median” value (ALMS patients [2]; EP Week 36 (Week 60), N=8) was −0.03 and the “change in severity of liver fibrosis based on ELF test” value (ALMS patients [2]; [3]) was “increase in liver fibrosis from moderate to severe”. The “increase in ELF test score from baseline” value (ALMS patients [2]; [3]) was 1.36, the “increase in ELF test score from baseline” value (ALMS patients [2]; Subject 826-001-004, 30-day break in treatment) was 1.17 and the “Change from Baseline ELF Test, Mean (SD)” value (ALMS patients [2]; Week 12, N=12) was 0.02 (1.023). The “Change from Baseline ELF Test, Median” value (ALMS patients [2]; Week 12, N=12) was 0.24, the “Change from Baseline ELF Test, Mean (SD)” value (ALMS patients [2]; Week 24, N=12) was −0.26 (0.933) and the “Change from Baseline ELF Test, Median” value (ALMS patients [2]; Week 24, N=12) was 0.06. The “ELF Test score” value (ALMS patients [2]; EP Week 12 (Week 36)) was 9.13 and 8.68 and 7.68 and 8.19 and 6.80 and 9.92 and 8.48 and 11.58 and 8.75 and 8.73, the “Severity of Liver Fibrosis Based on ELF Test” value (ALMS patients [2]; EP Week 12 (Week 36)) was “Mod (moderate fibrosis ≥ 7.7 to < 9.8); also recorded: NTM (None to mild fibrosis < 7.7); also recorded: Sev (severe fibrosis ≥ 9.8)” and the “ELF Test score” value (ALMS patients [2]; EP Week 24 (Week 48)) was 10.30 and 8.00 and 6.98 and 7.45 and 6.95 and 8.36 and 11.14 and 8.76 and 8.74. For the same molecule, the “Severity of Liver Fibrosis Based on ELF Test” value (ALMS patients [2]; EP Week 24 (Week 48)) was “Sev (severe fibrosis ≥ 9.8); also recorded: Mod (moderate fibrosis ≥ 7.7 to < 9.8); also recorded: NTM (None to mild fibrosis < 7.7)”, the “ELF Test score” value (ALMS patients [2]; EP Week 36 (Week 60)) was 10.28 and 8.42 and 7.16 and 9.90 and 8.50 and 10.79 and 8.64 and 8.74 and the “Severity of Liver Fibrosis Based on ELF Test” value (ALMS patients [2]; EP Week 36 (Week 60)) was “Sev (severe fibrosis ≥ 9.8); also recorded: Mod (moderate fibrosis ≥ 7.7 to < 9.8); also recorded: NTM (None to mild fibrosis < 7.7)”. For the same molecule, the “ELF Test score” value (ALMS patients [2]; Week 12) was 8.50 and 8.63 and 9.75 and 7.98 and 7.93 and 7.33 and 10.05 and 9.71 and 10.96 and 8.51 and 11.25 and 9.05, the “Severity of Liver Fibrosis Based on ELF Test” value (ALMS patients [2]; Week 12) was “Mod (moderate fibrosis ≥ 7.7 to < 9.8); also recorded: NTM (None to mild fibrosis < 7.7); also recorded: Sev (severe fibrosis ≥ 9.8)” and the “ELF Test score” value (ALMS patients [2]; Week 24) was 9.31 and 9.02 and 8.60 and 7.14 and 7.26 and 7.31 and 10.39 and 8.41 (2×) and 10.69 and 8.47 and 11.29. The “Severity of Liver Fibrosis Based on ELF Test” value (ALMS patients [2]; Week 24) was “Mod (moderate fibrosis ≥ 7.7 to < 9.8); also recorded: NTM (None to mild fibrosis < 7.7); also recorded: Sev (severe fibrosis ≥ 9.8)”.
